According to patent publication US12653808B2, “Compounds for treating multiple myeloma” (Purdue Pharma L.P., priority 2018, dated 2026):
Values joined by “and” are separate entries in the source; they are usually repeats but may differ in a detail not shown here. Equal entries are not always repeated.

Tests used:
[1] = PK assessment: plasma concentrations of tinostamustine and metabolites M2 and M8, cycle 1 day one; assay type: in vivo, human
Procedure: Plasma samples were collected to determine the concentrations of tinostamustine and its metabolites (labelled M2 and M8) by a method fully validated according to the relevant guidelines. The PK profiles of tinostamustine in plasma were assessed in each patient in the escalation stage of the study, in cycle 1 only.
Patients of all cohorts and over all dose levels were sampled according to the following schedule: 0.5 hours prior to dose administration, and at 15, 30 and 45 minutes and 1, 1.25, 1.50, 2, 3, 8, 24, 48 and 72 hours from the start of tinostamustine infusion. Plasma samples were collected according to the Laboratory Manual for the determination of tinostamustine and metabolites M2 and M8 concentrations using a method fully validated according to the relevant guidelines.

[2] = Compartmental population PK analysis of tinostamustine; assay type: in vivo, human; conditions: dose range 20 to 120 mg/m^2, infusion times 30 to 60 minutes
Procedure: A compartmental population PK analysis of tinostamustine was conducted to characterize its concentration-time profiles and its dependency on patient factors. For the analysis, the 24 hours plasma concentrations of tinostamustine at day one from 36 patients was used from whom the data was available. The concentration-time profiles were best described with a two-compartmental model with first order clearance from the central compartment.

[3] = tested on: relapsed/refractory hematologic malignancies; assay: Tumour assessment: response to treatment, all HM; assay type: in vivo, human; conditions: all 46 patients
Excerpt: (§1) Response to treatment included evaluation of overall response rate (patients with a CR plus patients with a PR), clinical benefit (CB) rate (patients with CR plus patients with PR plus patients with stable disease (SD)), progression free survival, and overall survival according to the relevant response criteria.

[4] = tested on: patients with relapsed/refractory hematologic malignancies; assay: Cardiac safety: electrocardiograms and cardiac disorders; assay type: in vivo, human
Excerpt: (§2) Other safety assessments included physical examinations, Eastern Cooperative Oncology Group (ECOG) performance status determinations, electrocardiograms (ECGs), pregnancy testing for women of childbearing potential, documentation of treatment-emergent adverse events (TEAEs), clinical laboratory evaluations including haematology, blood chemistry and urinalysis, vital signs, and documentation of concomitant medication usage.

multiple myeloma [5] = assay: Tumour assessment: response to treatment, patients with multiple myeloma; assay type: in vivo, human; conditions: 19 patients with MM
Excerpt: as §1

[6] = tested on: patients with relapsed/refractory hematologic malignancies; assay: Phase 1 dose escalation trial: safety, treatment-emergent adverse events, DLT/MTD (NCI CTCAE v4.03); assay type: in vivo, human; conditions: for recommended starting dose, relapse refractory multiple myeloma: 60 minutes infusion, day 1 and day 15 of 28-day cycle
Procedure: A phase 1 trial was carried out including a dose escalation study to investigate the safety, pharmacokinetic (PK) profiles and efficacy of tinostamustine (EDO-S101) in relapsed/refractory hematologic malignancies.
The patient had relapsed/refractory hematologic malignancies for which there are no available therapies.
The assessment of dose-limiting toxicities (DLTs) was based on cycle 1 events alone. Toxicities were assessed regarding type and severity using the National Cancer Institute (NCI) Common Terminology Criteria for Adverse Events (CTCAE) version 4.03, June 2010. Toxicity data were collected for all patients throughout their time on study. Infusion site reactions were assessed using the Phlebitis Scale developed by the Infusion Nurses Society (2011).
DLTs, which were at least possibly related to study drug, were defined as: • Any Grade 3 or 4 non-hematologic toxicity (excluding alopecia and easily correctable electrolyte abnormalities); • Nausea, vomiting or diarrhoea that persists beyond 10 days despite aggressive symptomatic treatment; • Grade 4 neutropenia or thrombocytopenia lasting for 7 days or more; • Any grade 2 or more toxicity, but persist for over 3 weeks; and • Any toxicity resulting in a delay of the next dose administration (cycle 2 day 1≥14).
To ensure patients' safety, the stopping rules were implemented to the dose escalation stage of the study.
as §2
If there is no DLT observed in any of these subjects, the trial proceeds to enroll additional subjects into the next higher dose cohort. If one subject develops a DLT at a specific dose, an additional three subjects are enrolled into that same dose cohort.

multiple myeloma [7] = conditions: López-Iglesias et al, J Hematol Oncol 2017, 10, 127; cited from earlier work
[8] = tested on: lymphoma (Hodgkin and non-Hodgkin); assay: Tumour assessment: response to treatment, patients with lymphoma; assay type: in vivo, human; conditions: 27 patients with lymphoma
Excerpt: as §1

[9] = tested on: patients with relapsed/refractory hematologic malignancies; assay: Biochemistry: clinical chemistry abnormalities and TEAEs; assay type: in vivo, human
Excerpt: as §2

[10] = all cohorts administered over 30 or 45 minutes
[11] = doses of 20 to 80 mg/m^2, 60 min cohorts
[12] = doses of 100 or 120 mg/m^2, 60 min cohorts

## Cn1c(CCCCCCC(=O)NO)nc2cc(N(CCCl)CCCl)ccc21 [tinostamustine]
[1]; dose 60 mg/m^2, infusion time 30 minutes
  Cmax Mean (SD): 1724 (1416) ng/mL
[1]; dose 80 mg/m^2, infusion time 60 minutes
  AUC Mean (SD): 902 (653) h · ng/mL
[1]; dose 120 mg/m^2, infusion time 60 minutes
  AUC Mean (SD): 1638 (578) h · ng/mL
[2]
  dose linearity of PK: dose-linear
[3]
  best response PD: 41%
[4]; all patients
  treatment-emergent ECG abnormality indicated to be clinically significant: No patient
  treatment-emergent QTcF interval >500 msec: One patient
[4]; one subject, MM 80/45 cohort, discontinuation visit three weeks after only dose, screening QTcF 423 msec
  prolonged QTcF interval: 677 ms
[4]; overall
  cardiac disorder considered study drug-related (grade 1 palpitations): 2%
Multiple myeloma [5]
  best response PD: 47%
[6]; 100 mg/m^2 over 60 minutes
  patients with Grade 3 and 4 thrombocytopenia in C2 and C3 leading to withdrawal: three patients
[6]; 120 mg/m^2, lymphoma cohort
  DLT: Thrombocytopenia
[6]; HM120/60 cohort patient, of all patients
  serious thrombocytopenia (grade 3), also led to study discontinuation: 2%
[6]; Patients (N = 46), number (percent)
  TEAE with outcome of death: 0 (0)
[6]; administered over 30 or 45 minutes
  leukopenia, incidence: 16%
[6]; administered over 60 minutes
  leukopenia, incidence: 27%
  thrombocytopenia, incidence: 58%
[6]; all 46 patients
  SAE dyspnea, hypersensitivity, osteomyelitis, pleural effusion, pneumonia, and thrombocytopenia (each): 2%
  SAE febrile neutropenia and sepsis (each): 2%
  all other TEAEs, incidence: < 20%
  discontinuation because of adverse events (AE): 29%
  grade 3/4 anemia, incidence: 22%
  grade 3/4 leukopenia/WBC decreased, incidence: 15% and 16%
  grade 3/4 lymphopenia, incidence: 8.6%
  grade 3/4 neutropenia/neutrophil count decreased, incidence: 29%
  grade 3/4 thrombocytopenia, incidence: 39% and 40%
  nausea, incidence: 29%
  other TEAEs leading to study drug discontinuation (anaphylactic reaction, febrile neutropenia, hypersensitivity, pleural effusion, pruritus; each): 2%
  patients with at least one TEAE considered study drug-related: 38 patients
[6]; all 46 patients, any grade
  anaemia, incidence: 39%
  leukopenia/WBC decreased, incidence: 21% and 22%
  neutropenia/neutrophil count decreased, incidence: 29% and 28%
  thrombocytopenia/platelet count decreased, incidence: 52%
[6]; [10]
  anaemia, incidence: 37%
  thrombocytopenia, incidence: 47%
[6]; baseline platelet count 100×10^9/L
  recommended starting dose, relapse refractory multiple myeloma: 50 mg/m^2
[6]; baseline platelet count >100×10^9/L
  recommended starting dose, relapse refractory multiple myeloma: 60 mg/m^2
[6]; doses of 20 to 80 mg/m^2
  grade 3 or 4 anaemia, incidence: 8%
[6]; [11]
  anaemia, incidence: 25%
  grade 3/4 thrombocytopenia, incidence: 8%
  leukopenia, incidence: 17%
  neutropenia, incidence: 25%
[6]; doses of 100 or 120 mg/m^2
  grade 3 or 4 anaemia, incidence: 36%
[6]; [12]
  anaemia, incidence: 64%
  grade 3/4 thrombocytopenia, incidence: 71%
  leukopenia, incidence: 36%
  neutropenia, incidence: 50%
[6]; lymphoma cohort, 120 mg/m^2 over 1 hour
  patients who experienced DLTs: Two out of six
[6]; shorter infusion times
  neutropenia, incidence: 16%
Multiple myeloma [7]
  activity in in vitro and in vivo models against multiple myeloma: potent activity
[8]
  best response PD: 37%
[9]; all patients
  C-reactive protein increased TEAE: 4%
  blood creatinine increased TEAE: 9%
  blood potassium decreased/hypokalemia TEAE: 11%
[9]; considered unrelated to study drug
  grade 3 hyperuricemia TEAE: 2%
[9]; patients with normal or grade 1 or 2 values at baseline
  treatment-emergent shift to grade 3 aspartate aminotransferase increased and grade 3 hypoalbuminemia (each): 2%
